Source: PubChem BioAssay AID179 (DTP/NCI, 2004)
Where “and” joins values, the source holds several entries; their conditions need not be identical. Equal entries are not always repeated. Calls of active or inactive are those of the source.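 Rule for the calls: active = compounds giving half or more protection of infected cells from virus-caused growth loss, again on retest; inactive = the rest.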 Where a SMILES comes first, the peptide text is derived from it. The star is where a group is joined. Boc = CC(C)(C)OC(=O)*; OBn = c1ccc(CO*)cc1

Test system: CEM cells HIV-1 protection, formazan growth assay
Assay: NCI AIDS Antiviral Assay
Details: for IC50: measured here: growth of uninfected CEM cells
Protocol: The ability of compounds to protect human CEM cells from HIV-1 infection is measured as a screen for new compounds capable of inhibiting the HIV virus. Five concentrations of drug were tested on uninfected and infected cells and cell growth was measured using a soluble formazan assay. […] Compounds that provided at least 50% protection were retested. Compounds that provided at least 50% protection on retest were listed as moderately active. Compounds that reproducibly provided 100% protection were listed as confirmed active. […] Note that the inability to provide protection could be due to toxicity.

Row | SMILES | EC50 | IC50 | outcome
1 | C=CCN=C1NC(=O)C(CC(=O)Nc2ccc([N+](=O)[O-])cc2[N+](=O)[O-])S1 (stereo not given) | > 13.8 µM | > 13.8 µM | –
2 | CCN(CC)CCC(=O)c1ccc(Cl)c(Cl)c1 | > 5010 µM | > 5010 µM | –
3 | CCN=C(N)SCCS(=O)(=O)O | > 200 µM | > 200 µM | –
4 | CCC(=N\NC(N)=S)/C(C)=N/O | > 200 µM | > 200 µM | –
5 | CCN(CC)CCCC(C)Nc1cc(-c2ccccc2)nc2cc(OC)ccc12 (stereo not given) | > 363 µM | 0.741 µM | –
6 | O=C(NC(=Nc1ccccc1)SCCSC(=Nc1ccccc1)NC(=O)c1cccs1)c1cccs1 | > 3.63 µM | > 3.63 µM | –
7 | Clc1ccc(SC(/C=C/NNC2=NC(c3ccccc3)C(c3ccccc3)=NN2)c2ccccc2)cc1 (stereo not given) | > 7.24 µM | 5.62 µM | –
8 | CC(=O)OCC1=C2C(OC(=O)C(C)C)CC3(COC(C)=O)OC3/C=C\C3(C)OC3C2OC1=O (stereo not given) | > 200 µM | 75.9 µM | –
9 | CC(C)CCSSCCC(C)C | > 200 µM | > 200 µM | –
10 | CC(C)(C)C1=NC(S)NC(CCC(=O)Nc2ccccc2[N+](=O)[O-])=C1 (stereo not given) | > 692 µM | > 692 µM | –
11 | COc1cc(/C=C/c2ccnc3ccccc23)ccc1N(C)C | > 200 µM | 2.19 µM | –
12 | O=[N+]([O-])/C(C=Nc1ccccc1)=C/Nc1ccccc1 | > 200 µM | 105 µM | –
13 | O=C1C2CCC(N1CCc1ccccc1)n1c(=O)n(-c3ccccc3)c(=O)n12 (stereo not given) | > 200 µM | > 200 µM | –
14 | Cc1ccc(SCC(CF)OC(C)n2cnc3c(=O)[nH]c(N)nc32)cc1 (stereo not given) | > 200 µM | 74.1 µM | –
15 | CC(C)CNC(=S)N/N=C\c1ccncc1 | > 200 µM | 105 µM | –
16 | COC(=O)/C(=N\NC(N)=O)C(C#N)c1ccccc1 (stereo not given) | > 692 µM | > 692 µM | –
17 | O=S1(=O)OCCOS(=O)(=O)C1Cc1nc2ccccc2[nH]1 | > 200 µM | 32.4 µM | –
18 | N.N.N.N.N.O=[N+]([O-])[O-].[Co+3].[O-][Cl+3]([O-])([O-])[O-] | – | – | inactive
19 | CN(C)c1ccc2c(c1)C(=O)N(OS(=O)(=O)c1ccccc1)C2=O | – | – | inactive
20 | CCOC(=O)c1ccc(CSc2ccc([N+](=O)[O-])cc2)cc1 | > 6.31 µM | > 6.31 µM | –
21 | CCOC(=O)N1CCN(C(=O)Nc2cccc3ccccc23)CC1 | – | – | inactive
22 | CCCCCCCCCCCCCCCCCc1nc(C#N)c(N)o1 | > 200 µM | 25.1 µM | –
23 | Cn1c2ccccc2n2c(=O)c3c(c(C#N)c12)CCCC3 | > 7.24 µM | > 7.24 µM | –

Row | SMILES | EC50 | IC50 | outcome
24 | Cc1ccc(C(C)C)c(OP(=S)(S)Oc2cc(C)ccc2C(C)C)c1 | > 200 µM | 4.17 µM | –
25 | CC1(C)C=CC2=C(O1)C(=O)c1ccccc1C2=O | > 200 µM | 32.4 µM and 26.9 µM | –
26 | O=C(O)CC1NC(/C(=C/c2ccccc2O)NC(=O)c2ccccc2)OC1=O (stereo not given) | – | – | inactive
27 | O=C(O)\C=C/C=C/C=C/C=C/C(=O)O | 126 µM | 135 µM | –
28 | CC(=O)N1N=C(c2ccc3ccccc3c2O)CC1c1ccc(N(C)C)cc1 (stereo not given) | > 50.1 µM | > 50.1 µM | –
29 | CCCCCC[P+](c1ccccc1)(c1ccccc1)c1ccccc1 | > 200 µM | 0.741 µM | –
30 | Cc1nc2[nH]c(=O)n(OS(=O)(=O)c3ccccc3)c(=O)c2s1 | > 200 µM | 35.5 µM | –
31 | COc1cccc2c1C(=O)c1c(O)c3c(c(O)c1C2=O)C[C@@](O)(C(=O)CO)C[C@@H]3OC1CC(N2CCOCC2C#N)C(O)C(C)O1 (stereo not given in full) | > 15.5 µM | 0.00501 µM | –
32 | C=C=C(C(=O)OC)S(=O)c1ccc([N+](=O)[O-])cc1[N+](=O)[O-] (stereo not given) | – | – | inactive
33 | CC(=O)OCC1OC(OC2C(CSC3OC(COC(C)=O)C(OC(C)=O)C(OC(C)=O)C3OC(C)=O)OC(OC(C)=O)C(OC(C)=O)C2OC(C)=O)C(OC(C)=O)C(OC(C)=O)C1OC(C)=O (stereo not given) | > 36.3 µM | > 36.3 µM | –
34 | O=C(NC12CC3CC(CC(C3)C1)C2)C(=O)c1c[nH]c2ccc(Cl)cc12 | – | – | inactive
35 | CSC1=N/C(=C\c2ccco2)C(=O)N1CN1CCOCC1 | > 200 µM | 39.8 µM | –
36 | COc1ccc2c(n1)Sc1nc3ccccc3nc1N2 | > 200 µM | 24.5 µM | –
37 | O=c1[nH]c(C2CCCCC2)nc2cc(Cl)ccc12 | – | – | inactive
38 | O/N=C1/C(=C/c2ccc(F)cc2)CCCC1C(NO)c1ccc(F)cc1 (stereo not given) | > 2.88 µM | > 2.88 µM | –
39 | c1ccc([P+](CCN2Cc3ccccc3C2)(c2ccccc2)c2ccccc2)cc1 | > 200 µM | 3.31 µM | –
40 | CCN(CC)CC(=O)Nc1c(C)ccc(N)c1C | > 200 µM | > 200 µM | –
41 | CC(=O)OC1c2ccccc2C2c3ccccc3C1C2(C)C(Cl)(Cl)Cl (stereo not given) | > 13.2 µM | > 13.2 µM | –
42 | O=S(=O)(O)CC(S(=O)(=O)O)S(=O)(=O)O | > 200 µM | > 200 µM | –
43 | CCNc1ncc2nc(CC(=O)OC)c(=O)n(CC)c2n1 | > 200 µM | > 200 µM | –
44 | CC(C)OC(=O)C1=C(O)c2ccccc2S(=O)(=O)N1C | > 832 µM | 56.2 µM | –
45 | N#C/C(=C\n1ccc(=O)[nH]c1=S)C(=O)c1ccc2ccccc2c1 | > 200 µM | 123 µM | –
46 | CN(C)CCN1C(=O)C2(C)C3CCC(O3)C2(C)C1=O (stereo not given) | 141 µM | 170 µM | –

Row | SMILES | EC50 | IC50 | outcome
47 | CN(C(=O)C12C3C4C1C1C2C3C41C(O)C(C)(C)C)C(C)(C)C (stereo not given) | > 117 µM | > 117 µM | –
48 | C=C/C(C)=C/[C@H](C)C(=O)C[C@H](O)CC1CC(=O)NC(=O)C1 | – | – | inactive
49 | COc1ccc(-c2cc3ccccc3[nH]c2=O)cc1OC | – | – | inactive
50 | c1ccc(C2=NOCC3(c4ccccc4)OC23)cc1 (stereo not given) | > 31.6 µM | 12 µM | –
51 | CCOC(CN(C)C(=O)Nc1ccc(Cl)c(Cl)c1)OCC | > 200 µM | 14.8 µM | –
52 | O=C(c1ccc(Cl)cc1)C1OC12C(=O)Nc1c(Cl)cc(Cl)cc12 (stereo not given) | > 19.5 µM | > 19.5 µM | –
53 | COc1ccc(C(=O)/C=C/c2ccc(OCCSCCCCCCCCCCSCCOc3ccc(/C=C/C(=O)c4ccc(OC)cc4)cc3)cc2)cc1 | > 200 µM | > 200 µM | –
54 | Cc1cn(C2C=CCCC2)c(=O)[nH]c1=O (stereo not given) | > 871 µM | > 871 µM | –
55 | COc1ccc(/C=C2\CN(C)Cc3c2[nH]c(=O)c(C#N)c3-c2ccc(OC)cc2)cc1 | > 200 µM | 97.7 µM | –
56 | COc1cc(N(CCC#N)CCC#N)ccc1/C(N=Nc1ccccc1)=N/NC(=O)c1cc(Br)ccc1O | > 100 µM | 17.8 µM | –
57 | O=c1n(-c2ccccc2)c(=O)n(-c2ccccc2)c(=O)n1-c1ccccc1 | > 200 µM | > 200 µM | –
58 | O=C(Nc1ccc(Cl)c(Cl)c1)NC(CO)(CO)CO | > 200 µM | 110 µM | –
59 | CC1(C)C(=O)C2(N)CCC1C2 (stereo not given) | > 200 µM | > 200 µM | –
60 | O=c1[nH]cnc2[nH]ncc12 | > 200 µM | > 200 µM | –
61 | NS(=O)(=O)c1cc[c]([Sb]=[O])cc1 | > 200 µM | 61.7 µM | –
62 | N=c1c2c3n(c4c(=O)n(-c5ccccc5)c(=S)n(c(=O)n1-c1ccccc1)c24)CCCCC3 | > 100 µM | > 100 µM | –
63 | CC(NC(=O)CNC(=O)OC(C)(C)C)C(=O)NC(Cc1ccccc1)C(=O)OCc1ccccc1 (stereo not drawn) (Boc-Gly-Ala-Phe-OBn; configuration not given here) | > 200 µM | 77.6 µM | –
64 | COc1ccc2[nH]c3c(=O)[nH]ncc3c2c1 | – | – | inactive
65 | Cc1ccc(S(=O)(=O)N(CC(=O)O)c2ccccc2)cc1 | – | – | inactive
66 | COc1ccc([N+](=O)[O-])c(/C(C#N)=C/c2ccccc2)c1 | > 200 µM | 12.3 µM | –
67 | S=c1nc(Cc2ccc(Cl)cc2)[nH][nH]1 | > 200 µM | 56.2 µM | –
68 | O=C([CH-]C(=O)c1ccccc1)c1ccccc1.[CH3-].[CH3-].[CH3-].[Sn+4] | > 35.5 µM | > 35.5 µM | –
69 | CCCCCC=C(c1cc(Br)c(OC)c(Br)c1)c1cc(Br)c(OC)c(Br)c1 | > 151 µM | > 151 µM | –

Row | SMILES | EC50 | IC50 | outcome
70 | Cc1cc(=O)[nH]c(NNC(C#N)c2ccc(O)cc2)n1 (stereo not given) | > 182 µM | > 182 µM | –
71 | Cc1ccnc(NC(=O)Nc2ccccc2Cl)c1 | > 200 µM | > 200 µM | –
72 | O=S(O)c1cc(Cl)cc(Cl)c1OCc1ccccc1 | – | – | inactive
73 | Cc1c(NC(=O)CCl)c(=O)oc2c(C)c3occc(=O)c3cc12 | > 40.7 µM | 0.204 µM | –
74 | N#CC1=C(O)NC(O)=C(C#N)C12C(=O)Nc1ccccc12 | > 794 µM | > 794 µM | –
75 | CCN(CC)CCOc1ccc(/C(C#N)=C/c2cccc3ccccc23)cc1 | > 200 µM | 1.78 µM | –
76 | CCCCNC(=O)OCCN=C1c2ccccc2C(Br)C(Br)c2ccccc21 (stereo not given) | > 200 µM | 26.9 µM | –
77 | CC1=NC2c3c(-c4ccc(Cl)cc4)cn(-c4ccc(C)cc4)c3N=CN2N1 (stereo not given) | > 100 µM | > 100 µM | –
78 | c1ccc(C2SCC3COCN32)cc1 (stereo not given) | > 240 µM | > 240 µM | –
79 | COC(=O)[C@H]1[C@H]2C[C@@H]3c4[nH]c5cccc(OC)c5c4CCN3C[C@H]2CC[C@H]1O | > 200 µM | > 200 µM | –
80 | Nc1ccn(C2CC(CO)C(CO)C2)c(=O)n1 (stereo not given) | > 209 µM | > 209 µM | –
81 | NC(=O)c1cccc(N=O)c1 | > 200 µM | 12.9 µM | –
82 | CC1=NN(c2ccccc2)C(=O)C1C(=O)C(=O)Nc1ccc(C)cc1C (stereo not given) | – | 102 µM | inactive
83 | Cn1nc(-c2ccccc2)c(C(=O)/C=C/c2ccc(Cl)cc2)c(N2CCCCC2)c1=O | > 17.8 µM | > 17.8 µM | –
84 | CCN(CC)[Se]c1ccccc1 | – | – | inactive
85 | S=C(NCCc1ccccn1)N/N=C/c1ccccn1 | > 2 µM | 0.0257 µM | –
86 | COC(=O)n1c(C)c(C=O)c2ccc(OC)cc21 | > 200 µM | 34.7 µM | –
87 | COC(=O)c1cc(OS(=O)(=O)C(F)(F)F)c(=O)n2c1CCCC2 | > 200 µM | 89.1 µM | –
88 | CCOC(=O)C(/C=N\C(=S)Nc1ccc(OCC)cc1)=C(/O)c1ccccc1 | > 200 µM | > 200 µM | –
89 | C=CCOc1ccc(/C(N=Nc2ccc(C)cc2)=N/NC(=O)c2ccccc2)cc1OC | > 200 µM | 10 µM | –
